Source: patent US20210008161A1, “METHODS AND COMPOSITIONS FOR IMPROVED HOMOLOGY DIRECTED REPAIR” (CRISPR THERAPEUTICS AG, priority 2019, published 2021)

How the values were obtained:
Format in all cases: cell-based, human
HEK293 T cells [1] = test: Indel formation at GFP gene in AAVS1 locus by TIDE analysis; settings: regardless of ssODN or gRNA, compared to DMSO control, FIG. 2C-2D
Protocol: The effect of DNA PK inhibition by Nu7441 correction of a DSB by the NHEJ pathway (e.g., introduce an indel at the DSB site) or HDR pathway (e.g., introduce a gene mutation encoded by a homology donor at the DSB site) was assessed using the reporter system described in Example 1. In this case gene-editing was evaluated in HEK293 T cells expressing GFP in the AAVS1 locus. To introduce a gene edit that converts GFP to BFP, cells were electroporated with ribonucleoprotein (RNP) comprised of Cas9 and gRNA1 (GFP target sequence identified by SEQ ID NO: 9; sgRNA spacer sequence identified by SEQ ID NO: 10) or gRNA2 (GFP target sequence identified by SEQ ID NO: 11; sgRNA spacer identified by SEQ ID NO: 12) that targets the GFP gene encoded in the AAVS1 locus. The cells were also transfected with ssODNs that encoded the gene correction necessary to convert GFP to BFP and homology arms complimentary to the sequence upstream and downstream of the target gene cut site. The efficiency of HDR repair was determined by measuring the level of cell BFP fluorescence. The efficiency of cutting (indel information) was monitored by TIDE analysis.
Shown in FIGS. 2C-2D is a measure of indel formation performed by TIDE analysis for the same edits that are described for FIGS. 2A-2B. […] Thus, the DNA PK inhibitor Nu7441 achieves reduced repair of a DSB by the NHEJ pathway when a homology donor is provided.

HEK293 T cells [2] = test: BFP to GFP fluorescent reporter assay of HDR efficiency (AAVS1 locus)
Protocol: An in vitro assay was conducted to determine the ability of various inhibitors and enhancers to improve the efficiency of HDR repair in HEK293 T cells. Specifically, a fluorescent reporter-based screening approach was developed to identify molecules that enhance gene-editing by HDR. A reporter system was generated in HEK293 T cells comprising a genomic AAVS1 locus that encoded either a blue fluorescent protein (BFP) or a green fluorescent protein (GFP) within the AAVS1 locus. A gene encoding BFP can be converted to a gene encoding GFP by substitution of cytosine at position 199 to uridine (e.g., a C to U transition at position 199). By introducing a DSB within the BFP gene using a CRISPR/Cas9 gene-editing system, a homology donor DNA encoding the nucleotide substitution can be used to edit the BFP gene to a GFP gene by HDR repair. Thus, a gene edit that induces a C to U transition at position 199 results in a change in cellular fluorescence. A change in the fluorescence of the cell measured by flow cytometry can be used to quantify efficiency of HDR repair. Additionally, the reverse gene edit can be performed for an AAVS1 locus encoding a GFP gene, wherein a GFP can be converted to BFP by substitution of uridine at position 199 to cytosine.
To create the reporter system, an AAV-based homology donor DNA encoding either BFP or GFP was created. The AAV-BFP or AAV-GFP donor was flanked by homology arms that were 1000 base pairs in length and expression of BFP or GFP was driven by the MND promoter (e.g., a synthetic promoter that contains the U3 region of a modified Moloney murine leukemia virus long term terminal repeat with myeloproliferative sarcoma virus enhancer and deleted negative control region, SEQ ID NO: 58). The viral DNA was packaged into capsids of adeno-associated virus serotype 6 (AAV6) vector. Either the BFP or GFP donor was introduced using the AAV6 vector into the AAVS1 locus in HEK293 T cells by homologous recombination using CRISPR-Cas9 as follows: purified Cas9 protein was complexed with two different single gRNAs (sgRNAs) targeting the AAVS1 locus at SEQ ID NO: 3 (spacer sequence identified by SEQ ID NO: 4; gRNA obtained from Maxcyte) or SEQ ID NO: 5 (spacer sequence identified by SEQ ID NO: 6; gRNA obtained from Thermo Fisher). Cas9 protein used in the Exemplary section provided herein refers to Cas9 polypeptide derived from S. pyogenes (SpCas9), unless indicated otherwise.
The Cas9-sgRNA complex was electroporated into the HEK293 T cells using the Lonza Nucleofector program CM-130. Approximately, 2 hours after electroporation, the cells were infected with various viral doses of AAV6 encoding a BFP (SEQ ID NO: 44) or GFP homology donor (SEQ ID NO: 47). One week later, cells were analyzed by flow cytometry to verify integration and expression of BFP or GFP in the AAVS1 locus. HEK293 T cells expressing BFP or GFP were sorted into single cells in 96-well plates. After ˜2 weeks of growth, DNA extracted from individual cells was analyzed for precise integration of the respective BFP or GFP gene into the AAVS1 locus by long-range PCR. This PCR analysis allowed for determination of whether the BFP/GFP gene was integrated in one or both alleles of the AAVS1 locus.
To introduce a gene edit that converts BFP to GFP, cells were electroporated with ribonucleoprotein (RNP) comprised of Cas9 and sgRNA that targets the BFP gene encoded in the AAVS1 locus. The sgRNA targeted a sequence in the BFP gene identified by SEQ ID NO: 7 (sgRNA spacer sequence identified by SEQ ID NO: 8). The sgRNA were prepared using a standard sgRNA cassette specific to SpCas9, as indicated by SEQ ID NO: 2 (wherein a, c, g, u represent 2′ O-methyl phosphorothioate nucleotides; s represents phosphorothioate nucleotides; and A, C, G, U, N represent canonical RNA nucleotides). The gRNAs used in the Exemplary section provided herein were sgRNAs prepared with the SpCas9 sgRNA cassette unless indicated otherwise. […]

HEK293 T cells [3] = test: Gene correction by NHEJ repair at GSD1a locus with dsDNA donors; settings: dsDNA donor 50-0 or 150-0, 2.5 μM Nu7441, 1.25 μM SCR7 or 10 μM RS-1, vs DMSO alone, FIG. 3
Protocol: The effect of Nu7441 treatment on gene correction by the NHEJ pathway was also evaluated. To do so, the cells were transfected with two different dsDNA donors: 50-0 (SEQ ID NO: 37) or 150-0 (SEQ ID NO: 38). Cells were edited with 1.5 μg dsDNA donor. These dsDNA donors, lacking homology arms, introduce a second 3′ splice site into exon 2 at the GSD1a locus when inserted into the cut site induced by the Cas9-guide complex by NHEJ repair. The cells were treated with 2.5 μM Nu7441, 1.25 μM SCR7, or 10 μM RS-1 and gene correction by NHEJ repair was evaluated. […] Treatment with SCR7 or RS-1 had no effect over DMSO alone.

[4] = 1.25 μM SCR7 or 10 μM RS-1, ssODN1-4, relative to DMSO alone, FIG. 1A

| Compound | indel formation at the DSB site (HEK293 T cells [1]) | fold higher HDR efficiency (HEK293 T cells [2]; 2.5 μM Nu7441, each of ssODN1-4, FIG. 1A) | fold higher HDR efficiency, high vs low concentration (HEK293 T cells [2]; 2.5 μM vs 0.6 μM, FIG. 1B, 1C) | HDR efficiency at higher concentrations (HEK293 T cells [2]; concentrations higher than 2.5 μM) | improvement in HDR efficiency, dose dependence (HEK293 T cells [2]; varied doses, FIG. 1B) | gene correction by NHEJ repair (HEK293 T cells [3]) | HDR efficiency (HEK293 T cells [2]; [4]) | HDR efficiency (HEK293 T cells [2]; different doses of mRNA encoding i53, ssODN Hn-91-61 and Ht-39-88, FIG. 1D) |
| --- | --- | --- | --- | --- | --- | --- | --- | --- |
| O=c1cc(N2CCOCC2)oc2c(-c3cccc4c3sc3ccccc34)cccc12 [Nu7441] | decreased | approximately 3 fold | approximately 1.5 fold | no further improvement | dose-dependent | substantial decrease |  |  |
| O=C(Nc1ccc(Br)cc1)c1ccc(Br)c(S(=O)(=O)NCc2ccccc2)c1 [RS-1] | reduction |  |  |  |  | no effect | no improvement |  |
| O=c1[nH]c(=S)[nH]c(N=Cc2ccccc2)c1N=Cc1ccccc1 [SCR7] | reduction |  |  |  |  | no effect | no improvement |  |
| i53: polypeptide inhibitor of 53BP1 (SEQ ID NO: 70), introduced as an mRNA-encoded protein (ORF SEQ ID NO: 69) |  |  |  |  |  |  |  | increased |
